Assays:
[1] = Induction of […] generation assessed as bleaching rate of ABDA under white light irradiation relative to control; assay type: functional
HeLa = assay: Photodynamic activity in human HeLa cells assessed as light dose required to kill 50% of cells by fluorescein diacetate and propidium iodide dye based fluorescence assay; assay type: functional

Q: For `C=Cc1c(C)c2cc3nc(c(CC(=O)O)c4[nH]c(cc5nc(cc1[nH]2)C(C)=C5CC)c(C)c4C(=O)O)C(CCC(=O)O)C3C` (centres undefined), which Activity [1] is on record?
A: The Activity was 16.7%.

Q: With `O=C(O)c1c(Cl)c(Cl)c(Cl)c(Cl)c1-c1c2cc(I)c(=O)c(I)c-2oc2c(I)c(O)c(I)cc12` as the compound, how does the Activity [1] read?
A: Its Activity is 55.6%.

Q: Which Activity (HeLa) does the source give for `CCC[n+]1cc2ccc(-c3ccc(N(c4ccccc4)c4ccccc4)cc3)cc2c(-c2ccccc2)c1-c1ccccc1.F[B-](F)(F)F` here?
A: Its Activity is 3.7 kJ/cm2.

Q: Which Activity [1] does the source give for `Cc1ccc(N(c2ccc(C)cc2)c2ccc(-c3ccc(/C=C/c4cc[n+](C)cc4)s3)cc2)cc1` here?
A: Its Activity is 90.7%.

— ChEMBL document CHEMBL4354851, “Aggregation-Induced Emission Photosensitizers: From Molecular Design to Photodynamic Therapy” (2020)
